Measured values from ChEMBL document CHEMBL1127982, “Synthesis, chemical half-life and decomposition of new N3-(substituted) derivatives of CCNU” (Bioorg Med Chem Lett, 1994).

Test: Partition coefficient (logD7.4)
Conditions: octanol/water, pH 7.4; call rule not given here

Q: With `C=CCN(C(=O)NCCCl)C1CCCCC1` as the compound, how does the logD read?
A: 1.48

Q: With `CN(C(=O)NCCCl)C1CCCCC1` as the compound, how does the logD read?
A: 1.41

Q: With `CC(C)(C)N(C(=O)NCCCl)C1CCCCC1` as the compound, how does the logD read?
A: 3.03

Q: For `O=NN(CCCl)C(=O)NC1CCCCC1` [LOMUSTINE], which logD is on record?
A: 2.83

Q: With `CC(C)N(C(=O)NCCCl)C1CCCCC1` as the compound, how does the logD read?
A: 2.36

Q: Which logD does the source give for `CC(C)N(C(=O)N(CCCl)N=O)C1CCCCC1` here?
A: 1.78

Q: For `CC(C)CN(C(=O)NCCCl)C1CCCCC1`, which logD is on record?
A: 1.93

Q: Which logD does the source give for `CC(C)(C)N(C(=O)N(CCCl)N=O)C1CCCCC1` here?
A: 2.46

Q: With `CC(O)CN(C(=O)NCCCl)C1CCCCC1` (centres undefined) as the compound, how does the logD read?
A: 0.37

Test: Chemical half-life was determined
Conditions: not given

Q: With `CN(C(=O)N(CCCl)N=O)C1CCCCC1` as the compound, how does the half-life read?
A: 47.8 h

Q: For `CCN(C(=O)N(CCCl)N=O)C1CCCCC1`, which half-life is on record?
A: 132 h

Q: For `CCCN(C(=O)N(CCCl)N=O)C1CCCCC1`, which half-life is on record?
A: 69.8 h

Q: For `O=NN(CCCl)C(=O)NC1CCCCC1` [LOMUSTINE], which half-life is on record?
A: 2.1 h

Q: With `O=NN(CCCl)C(=O)N(C1CCCCC1)C1CCCCC1` as the compound, how does the half-life read?
A: 62.6 h

Q: With `CC(C)N(C(=O)N(CCCl)N=O)C1CCCCC1` as the compound, how does the half-life read?
A: 32.9 h

Q: Which half-life does the source give for `CC(O)CN(C(=O)N(CCCl)N=O)C1CCCCC1` (centres undefined) here?
A: 43.3 h

Q: Which half-life does the source give for `C#CCN(C(=O)N(CCCl)N=O)C1CCCCC1` here?
A: 76.8 h

Test: HChemical half-life was determined, not active
Assay type: ADME
Conditions: not given

Q: For `O=NN(CCCl)C(=O)N(CCCO)C1CCCCC1`, which T1/2 is on record?
A: Not Active

Test: Chemical half-life was determined; not active
Assay type: ADME
Conditions: not given

Q: For `CC(C)(C)N(C(=O)N(CCCl)N=O)C1CCCCC1`, which T1/2 is on record?
A: Not Active
